Results reported in patent publication US8338565B2, “Macrocyclic compounds for inhibition of tumor necrosis factor alpha” (Ensemble Therapeutics Corporation, priority 2008, dated 2012).
Where two headings read alike, the source gives them in different places. Numbered stars: 1 amine (or outer) side, 2 acyl side, 3 side chain; on linkers, the order of the positions; unused ones are H or OH. Bridge positions count the residues as written; N and C are the ends. Square brackets hold non-standard residues; d marks the D form. Peptide text beside a SMILES is read from it. Tartaroyl(2R,3R-(OAc)2) = CC(=O)O[C@@H](C(=O)[*:1])[C@@H](OC(C)=O)C(=O)[*:2]; Phe(4-CF3) = N[C@@H](Cc1ccc(C(F)(F)F)cc1)C(=O)O; dPhe(3-CF3) = N[C@H](Cc1cccc(C(F)(F)F)c1)C(=O)O; Phe(4-COOH) = N[C@@H](Cc1ccc(C(=O)O)cc1)C(=O)O; dPhe(2-CF3) = N[C@H](Cc1ccccc1C(F)(F)F)C(=O)O; Bip = N[C@@H](Cc1ccc(-c2ccccc2)cc1)C(=O)O; dBip = N[C@H](Cc1ccc(-c2ccccc2)cc1)C(=O)O; dPhe(4-NH2) = Nc1ccc(C[C@@H](N)C(=O)O)cc1; Phe(3-OMe) = COc1cccc(C[C@H](N)C(=O)O)c1; Phe(4-NH2) = Nc1ccc(C[C@H](N)C(=O)O)cc1; 1Nal = N[C@@H](Cc1cccc2ccccc12)C(=O)O; 2Nal = N[C@@H](Cc1ccc2ccccc2c1)C(=O)O; d(hPhe) = N[C@H](CCc1ccccc1)C(=O)O; hPhe = N[C@@H](CCc1ccccc1)C(=O)O; 2Thi = N[C@@H](Cc1cccs1)C(=O)O; Cha = N[C@@H](CC1CCCCC1)C(=O)O; d2Thi = N[C@H](Cc1cccs1)C(=O)O; Suc = O=C(CCC(=O)[*:2])[*:1]; Dap = NC[C@H](N)C(=O)O; Ac3c = NC1(C(=O)O)CC1

Target: T1, TNFα / TNFα receptor (TNFα R1/Fc) (Homo sapiens, UniProt P01375)
T1 construct: purchased R&D Systems
T1 sequence (P01375 77-233 limits assumed, species assumed): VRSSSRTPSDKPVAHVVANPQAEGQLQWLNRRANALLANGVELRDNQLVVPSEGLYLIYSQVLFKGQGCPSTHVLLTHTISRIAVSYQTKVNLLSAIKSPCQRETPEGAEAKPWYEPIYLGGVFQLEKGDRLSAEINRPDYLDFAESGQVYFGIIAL
Experiment: Inhibition of binding of TNFα to the TNFα receptor (plate ELISA competition)
Details: Table 2
In short: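 Plates were coated with TNFα at 15 nM. Test compound and 8.33 nM receptor-Fc (PBST, 2% DMSO) were first mixed in solution for 30 min at room temperature, then transferred to the plates for another 30 min. Competition was read by absorbance at 450 nm after HRP anti-human IgG Fc detection with TMB.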

[1] = read-out: Activity (IC50, inhibition of TNFα binding to TNFα R1/Fc)

Compound | IC50 [1] [µM] | IC50 (Activity (IC50, inhibition of TNFα binding to TNFα R1/Fc)) [µM]
O=C(O)[C@@H]1Cc2ccc(cc2)NC(=O)[C@H](O)[C@@H](O)C(=O)N[C@H](Cc2cccs2)C(=O)N[C@@H](Cc2ccc(-c3cccc(O)c3)cc2)C(=O)N[C@H](Cc2ccccc2)C(=O)N1 [Compound 188] | > 100 | 
O=C1CCCCc2cn(nn2)C[C@@H](C(=O)O)NC(=O)[C@@H](CCc2ccccc2)NC(=O)[C@H](Cc2ccc(-c3ccccc3)cc2)NC(=O)[C@@H](Cc2cccs2)N1 [Compound 544] | < 10 | 
N[C@H]1CNC(=O)c2ccc(cc2)C[C@@H](C(=O)O)NC(=O)[C@@H](Cc2ccccc2)NC(=O)[C@H](Cc2ccc(-c3ccccc3)cc2)NC(=O)[C@@H](CCc2ccccc2)NC1=O [Compound 265] (H-[Dap][d(hPhe)][Bip][dF][Phe(4-COOH)]-OH; lactam 1-5) | > 100 | 
O=C1N[C@H](Cc2ccccc2)C(=O)N[C@@H](C(=O)O)Cc2ccc(cc2)NC(=O)[C@H](O)[C@@H](O)C(=O)N[C@H](Cc2ccccc2)C(=O)N[C@H]1Cc1ccc(Cl)cc1Cl [Compound 243] | 30 to 100 | 
O=C1COc2ccc(cc2)C[C@@H](C(=O)N[C@@H](CO)C(=O)O)NC(=O)[C@H](CCc2ccccc2)NC(=O)[C@@H](Cc2ccc(-c3ccccc3)cc2)NC(=O)[C@H](Cc2cccs2)N1 [Compound 486] |  | < 10
O=C1CCC(=O)N[C@H](CCc2ccccc2)C(=O)N[C@@H](Cc2ccc(C(F)(F)F)cc2)C(=O)N[C@H](Cc2ccccc2)C(=O)N[C@@H](C(=O)NC2(C(=O)O)CC2)Cc2ccc(cc2)N1 [Compound 17] ([d(hPhe)][Phe(4-CF3)][dF][dPhe(4-NH2)][Ac3c]-OH; linker N-4 via Suc) | 10 to 30 | 
N#Cc1ccccc1C[C@H]1NC(=O)[C@H](Cc2ccc(-c3ccccc3)cc2)NC(=O)[C@@H](Cc2cccs2)NC(=O)[C@H](O)[C@@H](O)C(=O)Nc2ccc(cc2)C[C@@H](C(=O)O)NC1=O [Compound 285] | 30 to 100 | 
O=C1CCC(=O)N[C@H](Cc2cccs2)C(=O)N[C@@H](CC2CCCCC2)C(=O)N[C@H](Cc2ccccc2)C(=O)N[C@H](C(=O)O)Cc2ccc(cc2)N1 [Compound 84] ([d2Thi][Cha][dF][Phe(4-NH2)]-OH; linker N-4 via Suc) | > 100 | 
O=C(O)[C@@H]1Cc2ccc(cc2)NC(=O)[C@H](O)[C@@H](O)C(=O)N[C@H](Cc2cccs2)C(=O)N[C@@H](Cc2ccc(OCc3ccccc3)cc2)C(=O)N[C@H](Cc2ccccc2)C(=O)N1 [Compound 177] | 30 to 100 | 
O=C1CCC(=O)N[C@H](CCc2ccccc2)C(=O)N[C@@H](Cc2ccc3ccccc3c2)C(=O)N[C@H](Cc2ccccc2)C(=O)N[C@H](C(=O)O)Cc2ccc(cc2)N1 [Compound 109] ([d(hPhe)][2Nal][dF][Phe(4-NH2)]-OH; linker N-4 via Suc) | 10 to 30 | 
O=C1CCC(=O)N[C@H](Cc2cccs2)C(=O)N[C@@H](Cc2ccc(-c3ccccc3)cc2)C(=O)N[C@H](Cc2cccs2)C(=O)N[C@H](C(=O)O)Cc2ccc(cc2)N1 [Compound 74] ([d2Thi][Bip][d2Thi][Phe(4-NH2)]-OH; linker N-4 via Suc) | 30 to 100 | 
COc1cccc(C[C@@H]2NC(=O)[C@@H](Cc3cccs3)NC(=O)CCC(=O)Nc3ccc(cc3)C[C@@H](C(=O)O)NC(=O)[C@@H](Cc3ccccc3)NC2=O)c1 [Compound 88] ([d2Thi][Phe(3-OMe)][dF][Phe(4-NH2)]-OH; linker N-4 via Suc) | > 100 | 
O=C1CCC(=O)N[C@H](CCc2ccccc2)C(=O)N[C@@H](Cc2cccc3ccccc23)C(=O)N[C@H](Cc2ccccc2)C(=O)N[C@H](C(=O)O)Cc2ccc(cc2)N1 [Compound 108] ([d(hPhe)][1Nal][dF][Phe(4-NH2)]-OH; linker N-4 via Suc) | 10 to 30 | 
O=C(O)[C@@H]1Cc2ccc(cc2)NC(=O)[C@H](O)[C@@H](O)C(=O)N[C@H](Cc2cccs2)C(=O)N[C@@H](Cc2ccc(Cl)cc2Cl)C(=O)N[C@H](Cc2ccccc2)C(=O)N1 [Compound 189] | > 100 | 
O=C1CCC(=O)N[C@H](Cc2ccccc2C(F)(F)F)C(=O)N[C@@H](Cc2ccc(C(F)(F)F)cc2)C(=O)N[C@H](Cc2ccccc2)C(=O)N[C@H](C(=O)O)Cc2ccc(cc2)N1 [Compound 163] ([dPhe(2-CF3)][Phe(4-CF3)][dF][Phe(4-NH2)]-OH; linker N-4 via Suc) | 30 to 100 | 
O=C1CCC(=O)N[C@H](Cc2cccc(C(F)(F)F)c2)C(=O)N[C@@H](Cc2ccc(C(F)(F)F)cc2)C(=O)N[C@H](Cc2ccccc2)C(=O)N[C@H](C(=O)O)Cc2ccc(cc2)N1 [Compound 166] ([dPhe(3-CF3)][Phe(4-CF3)][dF][Phe(4-NH2)]-OH; linker N-4 via Suc) | 30 to 100 | 

Continued, in another order:

IC50 [1] [µM] | Compound | IC50 (Activity (IC50, inhibition of TNFα binding to TNFα R1/Fc)) [µM]
< 10 | O=C1COc2ccc(cc2)C[C@@H](C(=O)N[C@H](Cc2ccccc2)C(=O)O)NC(=O)[C@H](CCc2ccccc2)NC(=O)[C@@H](Cc2ccc(-c3ccccc3)cc2)NC(=O)[C@H](Cc2ccc(-c3ccncc3)cc2)N1 [Compound 582] | 
> 100 | O=C1CCC(=O)N[C@H](Cc2cccs2)C(=O)N[C@@H](Cc2ccc(-c3ccccc3)cc2)C(=O)N[C@@H](Cc2ccccc2)C(=O)N[C@@H](C(=O)O)Cc2ccc(cc2)N1 [Compound 497] ([d2Thi][Bip]F[dPhe(4-NH2)]-OH; linker N-4 via Suc) | 
30 to 100 | O=C(O)C[C@H](NC(=O)[C@@H]1Cc2ccc(cc2)OCC(=O)N[C@@H](Cc2cccs2)C(=O)N[C@@H](Cc2ccc(-c3ccccc3)cc2)C(=O)N[C@@H](Cc2ccccc2)C(=O)N1)C(=O)O [Compound 345] | 
> 100 | O=C1CCC(=O)N[C@@H](Cc2cccs2)C(=O)N[C@H](Cc2ccc(-c3ccccc3)cc2)C(=O)N[C@H](Cc2ccccc2)C(=O)N[C@@H](C(=O)O)Cc2ccc(cc2)N1 [Compound 501] ([2Thi][dBip][dF][dPhe(4-NH2)]-OH; linker N-4 via Suc) | 
> 100 | O=C1CCC(=O)N[C@H](Cc2cccs2)C(=O)N[C@H](Cc2ccc(-c3ccccc3)cc2)C(=O)N[C@@H](Cc2ccccc2)C(=O)N[C@H](C(=O)O)Cc2ccc(cc2)N1 [Compound 496] ([d2Thi][dBip]F[Phe(4-NH2)]-OH; linker N-4 via Suc) | 
10 to 30 | O=C1COc2ccc(cc2)C[C@@H](C(=O)O)NC(=O)[C@@H](CCc2ccccc2)NC(=O)[C@H](Cc2ccc(-c3ccccc3)cc2)NC(=O)C(c2ccc(Br)cc2)N1 (stereo partly drawn) [Compound 517] | 
10 to 30 | O=C1CCC(=O)N[C@H](Cc2cccs2)C(=O)N[C@@H](Cc2ccc(-c3ccccc3)cc2)C(=O)N[C@H](CCc2ccccc2)C(=O)N[C@H](C(=O)N[C@@H](Cc2ccccc2)C(=O)O)Cc2ccc(cc2)N1 [Compound 445] ([d2Thi][Bip][d(hPhe)][Phe(4-NH2)]F-OH; linker N-4 via Suc) | 
< 10 | O=C1COc2ccc(cc2)C[C@@H](C(=O)O)NC(=O)[C@H](Cc2c[nH]c3ccccc23)NC(=O)[C@@H](Cc2ccc(-c3ccccc3)cc2)NC(=O)[C@H](Cc2ccncc2)N1 [Compound 653] | 
> 100 | CC(=O)N[C@H]1CC(=O)N[C@H](Cc2cccs2)C(=O)N[C@@H](Cc2ccc(-c3ccccc3)cc2)C(=O)N[C@H](Cc2ccccc2)C(=O)N[C@H](C(=O)O)Cc2ccc(cc2)NC1=O [Compound 377] | 
< 10 | O=C1COc2ccc(cc2)C[C@@H](C(=O)N[C@H](CCc2ccccc2)C(=O)O)NC(=O)[C@H](CCc2ccccc2)NC(=O)[C@@H](Cc2ccc(-c3ccccc3)cc2)NC(=O)[C@H](Cc2ccc(-c3ccncc3)cc2)N1 [Compound 624] | 
> 100 | CC(=O)O[C@H]1C(=O)Nc2ccc(cc2)C[C@H](C(=O)N[C@@H](Cc2ccccc2)C(=O)O)NC(=O)[C@H](CCc2ccccc2)NC(=O)[C@@H](Cc2ccc(-c3ccccc3)cc2)NC(=O)[C@H](Cc2cccs2)NC(=O)[C@@H]1OC(C)=O [Compound 411] ([2Thi][dBip][hPhe][dPhe(4-NH2)]F-OH; linker N-4 via Tartaroyl(2R,3R-(OAc)2)) | 
< 10 | CC(=O)O[C@H]1C(=O)Nc2ccc(cc2)C[C@H](C(=O)N[C@@H](Cc2ccccc2)C(=O)O)NC(=O)[C@@H](CCc2ccccc2)NC(=O)[C@H](Cc2ccc(-c3ccccc3)cc2)NC(=O)[C@@H](Cc2cccs2)NC(=O)[C@@H]1OC(C)=O [Compound 409] ([d2Thi][Bip][d(hPhe)][dPhe(4-NH2)]F-OH; linker N-4 via Tartaroyl(2R,3R-(OAc)2)) | 
< 10 | O=C(O)CCCNC(=O)[C@@H]1Cc2ccc(cc2)OCC(=O)N[C@@H](Cc2ccncc2)C(=O)N[C@H](Cc2ccc(-c3ccccc3)cc2)C(=O)N[C@@H](CCc2ccccc2)C(=O)N1 [Compound 560] | 
> 100 | O=C1COc2ccc(cc2)C[C@@H](C(=O)O)NC(=O)[C@@H](Cc2ccc(O)cc2)NC(=O)[C@H](Cc2ccc(-c3ccccc3)cc2)NC(=O)[C@@H](Cc2cccs2)N1 [Compound 534] | 
< 10 | O=C(O)CNC(=O)[C@@H]1Cc2ccc(cc2)OCC(=O)N[C@@H](Cc2cccs2)C(=O)N[C@H](Cc2ccc(-c3ccccc3)cc2)C(=O)N[C@@H](Cc2ccccc2)C(=O)N1 [Compound 383] | 
> 100 | O=C1COc2ccc(cc2)C[C@@H](C(=O)O)NC(=O)[C@@H](Cc2cccs2)NC(=O)[C@H](Cc2ccc(-c3ccccc3)cc2)NC(=O)[C@@H](Cc2cccs2)N1 [Compound 538] | 
30 to 100 | O=C1CCC(=O)N[C@H](Cc2ccccc2)C(=O)N[C@@H](Cc2ccc(-c3ccccc3)cc2)C(=O)N[C@H](Cc2ccccc2)C(=O)N[C@H](C(=O)O)Cc2ccc(cc2)N1 [Compound 128] ([dF][Bip][dF][Phe(4-NH2)]-OH; linker N-4 via Suc) | 
< 10 | O=C1COc2ccc(cc2)C[C@@H](C(=O)O)NC(=O)[C@H](Cc2ccccc2)NC(=O)[C@H](Cc2ccc(F)cc2)NC(=O)[C@H](Cc2cccs2)N1 [Compound 398] | 
< 10 | O=C1COc2ccc(cc2)C[C@@H](C(=O)N[C@H](CO)C(=O)O)NC(=O)[C@H](CCc2ccccc2)NC(=O)[C@@H](Cc2ccc(-c3ccccc3)cc2)NC(=O)[C@H](Cc2ccc(-c3ccncc3)cc2)N1 [Compound 584] | 
10 to 30 | COc1ccc(C[C@@H]2NC(=O)[C@@H](Cc3ccc(-c4ccccc4)cc3)NC(=O)[C@H](Cc3cccs3)NC(=O)COc3ccc(cc3)C[C@@H](C(=O)O)NC2=O)cc1 [Compound 630] | 
